Test system: MC38 tumors
Assay: MC38 tumor growth and survival, oral L-arginine with or without αPD-L1
Type: in vivo, C57BL/6 WT mice
Settings: s.c. MC38; L-arginine 2 g/kg oral gavage daily; αPD-L1 200 μg i.p. every second day; compared to control group
Description: FIGS. 1A, 1B, and 1C: 5×10^5 MC38 colon adenocarcinoma cells were injected s.c. in C57BL/6 WT mice and tumors were allowed to grow for 11 days before treatments were initiated. Control mice (n=13) received daily an oral gavage of H2O (100 μl) and every second day 200 μl of PBS i.p. The L-arginine group received daily an oral gavage of L-arginine (2 g/kg body weight in 100 μl) (n=19). The PD-L1 group received 200 μg of αPD-L1 mAb i.p. every second day (n=16). The Combo group received L-arginine (oral) and αPD-L1 (i.p.) (n=17). FIG. 1A depicts in vivo MC38 tumor growth (number of mice are indicated in the graph). Values represent mean tumor volume +/− SEM. FIG. 1C: Survival curves of different groups of mice. P values were determined by log-rank comparisons between the curves. FIG. 1B provide tumor growth curves of individual mice. P values were determined by two way ANOVA. *P<0.05, **P<0.01, ***P<0.001, ****P<0.0001, throughout.
MC38 murine colon adenocarcinoma cells were cultured in RPMI 1640 plus 10% heat-inactivated FCS, 1 mM Na-Pyruvate and 50 μM β-mercaptoethanol. Female C57BL/6 mice between the ages of 5 to 10 weeks were implanted with the MC38 cells. […] The size of tumors was measured in a blinded fashion using calipers. […] Tumors were collected, digested and tumor-infiltrating lymphocytes (TILs) were analyzed by flow cytometry.

For `N=C(N)NCCC[C@H](N)C(=O)O` [L-arginine], the MC38 tumor growth was “slightly reduced”.
